The values below come from patent US20180099967A1, “FUSED TRICYCLIC HETEROCYCLIC COMPOUNDS AS HIV INTEGRASE INHIBITORS” (MERCK SHARP & DOHME CORP., priority 2015, published 2018).

The test has as its system HIV-1. The test can be described thus: microbe, parasite or virus in culture. In kind it is cell-based, HIV-1 (H9IIIB or NL4-3 virus). As for the experimental part: HIV-1 replication was monitored using MT4-gag-GFP clone D3 (hereafter designate MT4-GFP), which are MT-4 cells modified to harbor a GFP reporter gene, the expression of which is dependent on the HIV-1 expressed proteins tat and rev. Productive infection of an MT4-GFP cell with HIV-1 results in GFP expression approximately 24 h post-infection.
MT4-GFP cells were maintained at 37° C./5% CO2/90% relative humidity in RPMI 1640 supplemented with 10% fetal bovine serum, 100 U/ml penicillin/streptomycin, and 400 μg/ml G418 to maintain the reporter gene. For infections, MT4-GFP cells were placed in the same medium lacking G418 and infected overnight with H9IIIB or NL4-3 virus at an approximate multiplicity of infection of 0.01 in the same incubation conditions. Cells were then washed and resuspended in either RPMI 1640 containing no serum at 1.6×10^5 cells/mL (serum free conditions), 10% normal human serum at 1.6×10^5 cells/mL (10% NHS conditions) or in 100% normal human serum at 2×10^5 cells/mL (100% NHS conditions). Compound plates were prepared by dispensing compounds taken up in DMSO into wells of 384 well poly D lysine-coated plates (0.2 μl/well) using an ECHO acoustic dispenser. Each compound was tested in a 10 point serial 3-fold dilution (typical final concentrations: 4.2 μM-0.21 nM). Controls included no inhibitor (DMSO only) and a combination of three antiviral agents (efavirenz, indinavir, and the integrase strand transfer inhibitor L-002254051 at final concentrations of 4 μM each). Cells were added (50 μL/well) to compound plates and the infected cells were maintained at 37° C./5% CO2/90% relative humidity.
Infected cells were quantified at two time points, ˜48 h and ˜72 h post-infection, by counting the number of green cells in each well using an Acumen eX3 scanner. […] Inhibition of R0 is calculated for each well, and IC50 value was determined using non-linear 4-parameter curve fitting.

Where [1] appears, read: Human immunodeficiency virus 1, read-out: WILD TYPE CELL ASSAY Viking IP (0% NHS) (nM).
The mark [2] stands for this setting: Human immunodeficiency virus 1, read-out: WILD TYPE CELL ASSAY Viking IP (100% NHS) (nM).
Setting [3] is: read-out: WILD TYPE CELL ASSAY Viking IP (0% NHS).
Setting [4] is: read-out: WILD TYPE CELL ASSAY Viking IP (100% NHS).

The structures appear in SMILES notation. pIC50: −log10 of the molar value. Like-named read-outs stand apart in the source and are kept apart here.

As for `CCN1C[C@@H]2C[C@H](NS(C)(=O)=O)c3c(C(=O)NCc4ccc(F)cc4F)c(=O)c(O)c(n32)C1=O` [Compound 46], the IC50 was determined as 11 nM under setting [1] and 1040 nM under setting [2].
As for `CCCN[C@@H]1C[C@@H]2CN(CC)C(=O)c3c(O)c(=O)c(C(=O)NCc4ccc(F)cc4F)c1n32` [Compound 22], the IC50 by setting is: under setting [1], 11 nM; under setting [2], 34 nM.
In the case of `CCN1C[C@H]2CC(N3CCCC3)c3c(C(=O)NCc4ccc(F)cc4F)c(=O)c(O)c(n32)C1=O` (single isomer, unassigned) [Compound 35], the pIC50 is 7.59 under setting [3] and 7.21 under setting [4].
As for `CCCN1CC2CC(NS(C)(=O)=O)c3c(C(=O)NCc4ccc(F)cc4F)c(=O)c(O)c(n32)C1=O` (single isomer, unassigned) [Compound 68], the pIC50 was 8.52 under setting [3] and 7.59 under setting [4].
On to `CCN1C[C@H]2C[C@@H](NC)c3c(C(=O)NCc4ccc(F)cc4F)c(=O)c(O)c(n32)C1=O` [Compound 8], for which the IC50 by setting is: under setting [1], 2 nM; under setting [2], 33 nM.
Take `CCN[C@H]1C[C@@H]2CN(CC)C(=O)c3c(O)c(=O)c(C(=O)NCc4ccc(F)cc4F)c1n32` [Compound 11]: the IC50 runs as follows: under setting [1], 2 nM; under setting [2], 1100 nM.
For the compound `CCN1C[C@@H]2C[C@@H](N(C)C)c3c(C(=O)NCc4ccc(F)cc4F)c(=O)c(O)c(n32)C1=O` [Compound 37], the pIC50 runs as follows: under setting [3], 8.70; under setting [4], 7.96.
As for `CCN1C[C@H]2C[C@H](NCCC(F)(F)F)c3c(C(=O)NCc4ccc(F)cc4F)c(=O)c(O)c(n32)C1=O` [Compound 29], the IC50 runs as follows: under setting [1], 7 nM; under setting [2], 228 nM.
For the compound `CCN1C[C@@H]2C[C@@H](NCCCCl)c3c(C(=O)NCc4cccc(Cl)c4F)c(=O)c(O)c(n32)C1=O` [Compound 41], the IC50 under setting [1] amounted to 2 nM and the IC50 under setting [2] is 22 nM.
Regarding `CCN1C[C@H]2C[C@H](NS(=O)(=O)c3ccc(C)cc3)c3c(C(=O)NCc4ccc(F)cc4F)c(=O)c(O)c(n32)C1=O` [Compound 53], the IC50 came out at 34 nM under setting [1] and 2260 nM under setting [2].
As to `CCCN1CC2CC(NS(C)(=O)=O)c3c(C(=O)NCc4ccc(F)cc4F)c(=O)c(O)c(n32)C1=O` (single isomer, unassigned) [Compound 71], the pIC50 reads like this: under setting [3], 8.52; under setting [4], 7.77.
For the compound `CCNC1CC2CN(CCOC)C(=O)c3c(O)c(=O)c(C(=O)NCc4ccc(F)cc4F)c1n32` (single isomer, unassigned) [Compound 66], the pIC50 is, setting by setting: under setting [3], 7.92; under setting [4], 6.74.
As to `CCN1C[C@@H]2C[C@@H](N(C)C)c3c(C(=O)NCc4cccc(Cl)c4F)c(=O)c(O)c(n32)C1=O` [Compound 38], the IC50 is 1 nM under setting [1] and 12 nM under setting [2].
For `CCN[C@@H]1C[C@H]2CN(CC)C(=O)c3c(O)c(=O)c(C(=O)NCc4ccc(F)cc4F)c1n32` [Compound 9], the IC50 by setting is: under setting [1], 1 nM; under setting [2], 11 nM.
Consider `CCN1C[C@@H]2CC(NC(=O)C(=O)N(C)C)c3c(C(=O)NCc4ccc(F)cc4F)c(=O)c(O)c(n32)C1=O` (stereo partly shown) [Compound 59], for which the pIC50 by setting is: under setting [3], 8.22; under setting [4], 7.47.
On to `CCN1C[C@@H]2C[C@@H](NS(C)(=O)=O)c3c(C(=O)NCc4ccc(F)cc4F)c(=O)c(O)c(n32)C1=O` [Compound 47], for which the IC50 under setting [1] was determined as 1 nM and the IC50 under setting [2] is 10 nM.
Take `CCN1C[C@@H]2C[C@@H](N3CCC3)c3c(C(=O)NCc4cccc(Cl)c4F)c(=O)c(O)c(n32)C1=O` [Compound 40]: the IC50 runs as follows: under setting [1], 5 nM; under setting [2], 20 nM.
`CCCN1CC2CC(NS(C)(=O)=O)c3c(C(=O)NCc4ccc(F)cc4F)c(=O)c(O)c(n32)C1=O` (single isomer, unassigned) [Compound 70]: the pIC50 is, setting by setting: under setting [3], 7.70; under setting [4], 5.73.
In the case of `CCN1C[C@H]2C[C@H](NCc3ccccc3)c3c(C(=O)NCc4ccc(F)cc4F)c(=O)c(O)c(n32)C1=O` [Compound 25], the IC50 is, setting by setting: under setting [1], 28 nM; under setting [2], 224 nM.
As for `CCN1C[C@H]2C[C@@H](N)c3c(C(=O)NCc4ccc(F)cc4F)c(=O)c(O)c(n32)C1=O` [Compound 4], the IC50 by setting is: under setting [1], 2 nM; under setting [2], 158 nM.
For `CCN1C[C@H]2C[C@@H](NCC3CC3)c3c(C(=O)NCc4ccc(F)cc4F)c(=O)c(O)c(n32)C1=O` [Compound 24], the IC50 runs as follows: under setting [1], 20 nM; under setting [2], 37 nM.
Turning to `CCCN1CC2CC(NS(C)(=O)=O)c3c(C(=O)NCc4ccc(F)cc4F)c(=O)c(O)c(n32)C1=O` (single isomer, unassigned) [Compound 69], the pIC50 by setting is: under setting [3], 8.15; under setting [4], 5.34.
Turning to `CCN1C[C@@H]2C[C@H](NC)c3c(C(=O)NCc4ccc(F)cc4F)c(=O)c(O)c(n32)C1=O` [Compound 6], the IC50 by setting is: under setting [1], 5 nM; under setting [2], 245 nM.
